Among the data in patent publication US9102637B2, “Bicyclic thiazole compounds” (CARNA BIOSCIENCES INC., priority 2013, dated 2015) are IC50 values, retold here.

Where only a bound is given, the exact number is not on record here.

human TNIK (N-terminal segment, TNIK_N, residues 1-314), sequence (Q9UKE5 1-314): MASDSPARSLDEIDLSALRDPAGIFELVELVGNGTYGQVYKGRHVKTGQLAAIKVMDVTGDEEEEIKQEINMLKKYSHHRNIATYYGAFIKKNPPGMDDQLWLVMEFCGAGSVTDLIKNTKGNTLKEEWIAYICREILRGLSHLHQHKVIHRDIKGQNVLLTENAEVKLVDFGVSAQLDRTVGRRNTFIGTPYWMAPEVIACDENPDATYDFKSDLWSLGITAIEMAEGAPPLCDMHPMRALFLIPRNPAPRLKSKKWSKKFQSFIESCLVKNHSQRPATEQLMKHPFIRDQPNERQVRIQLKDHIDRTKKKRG

The first experiment has as its target human TNIK (N-terminal segment, TNIK_N, residues 1-314) (Homo sapiens (Human), UniProt Q9UKE5). As to the kind of experiment: TNIK kinase assay (mobility shift). It counts as biochemical. As to conditions: TNIK_N kinase activity, 25 μM ATP, 1 h at room temperature. The text has this: Preparation of Recombinant Human TNIK (N-Terminal Segment):
A cDNA encoding the N-terminal segment (TNIK_N, residues 1-314) containing the kinase domain of human TNIK (NM_015028.1) was amplified from cDNA mixture synthesized from human tissue (Biochain) by PCR using the following primers.
The cDNA was subcloned into baculovirus transfer vector pFastBac_GSTb that includes protease cleavage site and glutathione S-transferase purification tag (GST-tag). The plasmid was purified and the insertion of the pFastBac_GSTb-TNIK_N was confirmed by DNA sequencing. Then E. coli DH10Bac competent cells were transformed with the plasmid to prepare the recombinant bacmid according to the instructions for the Bac-to-Bac™ baculovirus expression systems (Invitrogen). The Sf9 cells were transfected with the recombinant bacmid containing pFastBac_GSTb-TNIK_N using Cellfectin Reagent (Invitrogen) in SF-9001I serum free media (Invitrogen). The viral supernatant was collected from the medium 72 h after transfection. The virus was amplified three times by infecting actively growing Sf9 or Sf21 cells in Grace's insect media (Invitrogen) supplemented with 10% FCS and an antibiotic-antimycotic reagent (Invitrogen) for 72 h at 27° C. in T-flask or roller bottles. The titer of amplified TNIK_N virus was estimated at 2.36×10^8 pfu/ml by using BacPAK™ Baculovirus Rapid Titer kit (Clontech).
Log-phase Sf21 cells (2×10^6 cells/ml) in the Grace's insect media were infected with the recombinant baculovirus at MOI of 3.0 and incubated in roller bottles (250 ml media per bottle) for 72 h at 27° C., after which, the cells were collected by centrifugation, and the cell pellet washed with cold PBS and kept at −80° C. until purification. The following purification procedures were carried out at 4° C. The frozen cells were thawed on ice and lysed in lysis buffer (50 mM Tris-HCl, pH 7.5, 150 mM NaCl, 1% Nonidet P-40, 5 mM DTT, 0.5 mM EDTA, 0.5 mM EGTA) supplemented with 1 mM phenylmethansulfonylfluoride, 2 μg/ml leupeptin, 2 μg/ml aprotinin, 1 mM NaF, 100 μM sodium orthovanadate, and 1 μM cantharidin by sonication. The suspended lysate was cleared by centrifugation at 9000g for 20 min and the supernatant was incubated for 1 h with glutathione Sepharose beads (GE Healthcare). The beads were suspended in buffer-H (50 mM Tris-HCl, pH 7.5, 1 M NaCl, 1 mM DTT, 0.5 mM EDTA, 0.5 mM EGTA and 0.05% Brij35) and washed with buffer-H followed by buffer-L (50 mM Tris-HCl, pH 7.5, 150 mM NaCl, 1 mM DTT, 0.5 mM EDTA, 0.5 mM EGTA, 0.05% Brij35) in an Econo-pack column (BIO-RAD). The bound TNIK_N was eluted with elution buffer (50 mM Tris-HCl, pH 8.0, 150 mM NaCl, 1 mM DTT, 10% glycerol, 0.5 mM EDTA, 0.5 mM EGTA and 5 mM reduced glutathione). The eluted fractions were collected and determined the protein concentration by Bradford reagent (BIO-RAD). The TNIKN fractions were pooled and desalted using 10DG column (BIORAD) equilibrated with the storage buffer (50 mM Tris-HCl, pH 7.5, 150 mM NaCl, 1 mM DTT, 10% glycerol, 0.05% Brij35). The purified TNIKN was characterized by electrophoresis using 4-20% polyacrylamide gels and matrix-assisted laser desorption/ionization reflection time-of-flight (MALDI-TOF) mass spectrometry on a Voyager-DE RP MALDI/TOF (Applied Biosystems). TNIK_N was confirmed by the molecular weight and. MASCOT Peptide Mass Fingerprint.
The kinase assays were conducted in a 20 μl volume using 384-well plates (Greiner). The reaction mixture consists of compound or vehicle (1% DMSO), 0.08 ng/μl TNIK_N, 1 μM FITC-labeled substrate peptides, including E-aminocaproic acid and 7 amino acids (described as SEQ ID NO.3 in “Kinase assay of TEST EXAMPLE 1” of WO 2010/064111(P.31)), 20 mM Hepes, pH 7.5, 0.01% Triton X-100, 5 mM MgCl2, 25 μM ATP and 2 mM DTT. As blank, TNIK N was excluded from the reaction mixture of vehicle (1% DMSO). […]
`NC(=O)c1nc(Nc2ccc3ccccc3c2)sc1NC(=O)c1ccc(Cn2cc(CO)nn2)cc1` [Example 260, 5-{4-[(4-(hydroxymethyl)-1H-1,2,3-triazol-1-yl)methyl]benzamido}-2-(naphthalen-2-ylamino) thiazole-4-carboxamide]: the half-maximal inhibitory concentration (IC50) amounted to 5.3 nM.
For `NC(=O)c1nc(Nc2ccc3ccccc3c2)sc1NC(=O)c1ccc(Cn2cnc([N+](=O)[O-])c2)cc1` [Example 239, 2-(naphthalen-2-ylamino)-5-{4-[(4-nitro-1H-imidazol-1-yl)methyl]benzamido}thiazole-4-carbox-amide], the IC50 is 5.9 nM.
Still for that read-out and setting: next, `COc1ccc2cc(Nc3nc(C(N)=O)c(NC(=O)c4ccc(N)cc4)s3)ccc2c1` [Example 136, 5-(4-aminobenzamido)-2-[(6-methoxynaphthalen-2-yl)amino]thiazole-4-carboxamide]: 9.7 nM; `NC(=O)c1nc(Nc2ccc3ccccc3c2)sc1NC(=O)CCCCCN1CCOCC1` [Example 92, 5-(6-morpholinohexanamido)-2-(naphthalen-2-ylamino)thiazole-4-carboxamide]: 20.2 nM; `NC(=O)c1nc(Nc2ccc3ccc(F)cc3c2)sc1NC(=O)c1ccsc1` [Example 80, 2-[(7-fluoronaphthalen-2-yl)amino]-5-(thiophene-3-carboxamido)thiazole-4-carboxamide]: 16.9 nM.
Same read-out and setting: the figure for `NC(=O)c1nc(Nc2ccc3ccccc3c2)sc1NC(=O)c1ccc(Cn2cccn2)cc1` [Example 232, 5-{4-[(1H-pyrazol-1-yl)methyl]benzamido}-2-(naphthalen-2-ylamino)thiazole-4-carboxamide] is 10.3 nM; for `CN(C)[C@H]1CCN(Cc2ccc(C(=O)Nc3sc(Nc4ccc5ccccc5c4)nc3C(N)=O)cc2)C1` [Example 221, (S)-5-(4-{[3-(dimethylamino)pyrrolidin-1-yl]methyl}benzamido)-2-(naphthalen-2-ylamino) thiazole-4-carboxamide] it is 2.6 nM.
Consider `NC(=O)c1nc(Nc2cccc3ncccc23)sc1NC(=O)c1ccc(Cn2ccnc2)cc1` [Example 254, 5-{4-[(1H-imidazol-1-yl)methyl]benzamido}-2-(quinolin-5-ylamino)thiazole-4-carboxamide], for which the concentration for half-maximal inhibition (IC50) turned out to be 4.8 nM.
Still for that read-out and setting: the figure for `NC(=O)c1nc(Nc2ccc3ccccc3c2)sc1NC(=O)c1ccc(CN2CCNC(=O)C2)cc1` [Example 180, 2-(naphthalen-2-ylamino)-5-{4-[(3-oxopiperazin-1-yl)methyl]benzamido}thiazole-4-carboxamide] is 4.2 nM; for `NC(=O)c1nc(Nc2ccc3ccccc3c2)sc1NC(=O)C#CCO` [Example 218, 5-(4-hydroxybut-2-ynamido)-2-(naphthalen-2-yl-amino)thiazole-4-carboxamide] it is 4.5 nM.
The same measure, in the same setting: the figure for `NC(=O)c1nc(Nc2ccc3ccccc3c2)sc1NC(=O)c1csc(Cn2ccnc2)c1` [Example 258, 5-{5-[(1H-imidazol-1-yl)methyl]thiophene-3-carboxamido}-2-(naphthalen-2-ylamino)thiazole-4-carboxamide] is 8.7 nM; for `CN1CCN(Cc2cc(C(=O)Nc3sc(Nc4cccc5ncccc45)nc3C(N)=O)cs2)CC1` [Example 56, 5-{5-[(4-methylpiperazin-1-yl)methyl]thiophene-3-carboxamido}-2-(quinolin-5-ylamino)thiazole-4-carboxamide] it is 8.2 nM; for `NC(=O)c1nc(Nc2ccc3ccc(F)cc3c2)sc1NC(=O)CCCCCN1CCOCC1` [Example 130, 2-[(7-fluoronaphthalen-2-yl)amino]-5-(6-morpho-linohexanamido)thiazole-4-carboxamide] it is 19.5 nM.
Same read-out and setting: the figure for `C[C@@H](O)CNc1ccc(C(=O)Nc2sc(Nc3ccc4ccccc4c3)nc2C(N)=O)cc1` [Example 147, (R)-5-{4-[(2-hydroxypropyl)amino]benzamido}-2-(naphthalen-2-ylamino)thiazole-4-carboxamide] is 16.8 nM; for `NC(=O)c1nc(Nc2ccc3ccccc3c2)sc1NC(=O)c1ccc(CNCCO)cc1` [Example 163, 5-(4-{[(2-hydroxyethyl)amino]methyl}benzamido)-2-(naphthalen-2-ylamino)thiazole-4-carboxamide] it is 3.7 nM.
Consider `NC(=O)c1nc(Nc2ccc3ccccc3c2)sc1NC(=O)c1ccc(NCCO)c(N)c1` [Example 121, 5-{3-amino-4-[(2-hydroxyethyl)amino]benzamido}-2-(naphthalen-2-ylamino)thiazole-4-carbox-amide], for which the IC50 came out at 24.4 nM.
The same measure, in the same setting: the figure for `Cc1ccc(C(=O)Nc2sc(Nc3ccc4cc(CO)ccc4c3)nc2C(N)=O)s1` [Example 151, 2-{[6-(hydroxymethyl)naphthalen-2-yl]amino}-5-(5-methylthiophene-2-carboxamido)thiazole-4-carboxamide] is 11.1 nM.

The next experiment relates to human colon cancer cell line HCT-116. The experiment in a line: In vitro cell proliferation assay. Type of experiment: cell-based. As to conditions: HCT-116 cell number, 72 hours of treatment. Here is the method:
In Vitro Cell Proliferation Assay
The human colon cancer cell line HCT-116 was seeded at 600 cells/well in 96 well-plate (ThermoFisher) using RPMI medium containing 2 mM L-glutamine (Invitrogen) supplemented with 10% FCS (Invitrogen) and 1% penicillin/streptomycin (Sigma) and maintained at 37° C., 5% CO2 and 100% humidity. The following day, old medium was withdrawn and the fresh medium was added. Initial numbers of cells were counted before adding compounds. Then cells were treated in duplicates with compounds (a half-logarithmic serial dilution from 10 μM). Eight untreated control wells were incubated in each plate. After 72 hours of treatment, cells were fixed with 2% paraformaldehyde, and the nucleus were stained with Hoechst 33258 (Invitrogen). The numbers of cells were counted with ArrayScan™ VTI (ThermoFisher Scientific).
Take `CN(C)Cc1ccc(C(=O)Nc2sc(Nc3ccc4ccccc4c3)nc2C(N)=O)cc1` [Example 20, 5-{4-[(dimethylamino)methyl]benzamido}-2-(naphthalen-2-ylamino)thiazole-4-carboxamide]: the half-maximal inhibitory concentration (IC50) was under 100 nM.
Still for that read-out and setting: next, `NC(=O)c1nc(Nc2ccc3ccccc3c2)sc1NC(=O)c1ccc(NC(=O)CO)cc1` [Example 21, 5-[4-(2-hydroxyacetamido)benzamido]-2-(naphthalen-2-ylamino)thiazole-4-carboxamide]: under 100 nM; `NC(=O)c1nc(Nc2ccc3ccccc3c2)sc1NC(=O)c1ccc(NCCOCCO)cc1` [Example 78, 5-(4-{[2-(2-hydroxyethoxy)ethyl]amino}benz-amido)-2-(naphthalen-2-ylamino)thiazole-4-carbox-amide]: under 100 nM; `NC(=O)c1nc(Nc2ccc3ccccc3c2)sc1NC(=O)c1ccc(N2CCOCC2)cc1` [Example 15, 5-(4-morpholinobenzamido)-2-(naphthalen-2-yl-amino)thiazole-4-carboxamide]: under 100 nM.
The same measure, in the same setting: the figure for `NC(=O)c1nc(Nc2ccc3ccccc3c2)sc1NC(=O)c1ccc(CN2CCNCC2)cc1` [Example 19, 2-(naphthalen-2-ylamino)-5-[4-(piperazin-1-ylmethyl)benzamido]thiazole-4-carboxamide] is 100 to 1000 nM.
`Cc1ccc(C(=O)Nc2sc(Nc3ccc4ccccc4c3)nc2C(N)=O)s1` [Example 34, 5-(5-methylthiophene-2-carboxamido)-2-(naph-thalen-2-ylamino)thiazole-4-carboxamide] yielded an IC50 of under 100 nM.

Usually IC50 stands for the concentration at which inhibition is half-maximal.
